The values that follow come from paper PMC10017027, “Design and Synthesis of Novel HIV-1 NNRTIs with Bicyclic Cores and with Improved Physicochemical Properties” (Journal of Medicinal Chemistry, 2023).

A value given as a limit tells only on which side of the number the result lay.

One series relates to HIV-1 (IIIB strain). Put plainly: MT-4 antiviral cytopathic effect assay, HIV-1 IIIB. Type of series: cell-based. The settings on record: for EC50: Human immunodeficiency virus 1, IIIB, MT4, protects 50% of MT-4 cells against HIV-1-induced cell killing, HIV-1 IIIB, WT, read-out: EC50 MT4. On the procedure: The prepared compounds were tested for their anti-HIV-1 activity (Table 1). A viral cytopathic effect assay in MT-4 cells with HIV-1 IIIB virus was used to determine compound potency (EC50, 50% cell viability) in protecting virus induced cell killing. Compound cytotoxicity was assessed in MT-4 cells in the absence of virus (CC50, 50% cytotoxicity).
(§1) Compounds were tested in a high-throughput 384-well assay format for their ability to inhibit the virus replication-induced cytopathic effect in MT-4 cell cultures acutely infected with HIV-1 (IIIB strain), HXB2, HXB2-K103N, and HXB2-Y181C. Compounds were serially diluted (1:3) in DMSO on 384-well polypropylene plates and further diluted 200-fold into complete RPMI media (10% FBS, 1% P/S) using Biotek Micro Flow and an Agilent ECHO acoustic dispenser. Each plate contained up to eight test compounds, with negative (no drug control) and 5 μM AZT positive controls. MT-4 cells were further diluted in complete RPMI media and added to each plate using a Micro-Flo dispenser. After five days of incubation in a humidified and temperature-controlled incubator (37 °C), Cell Titer Glo (Promega) was added to the assay plates to quantify the amount of […]. EC50 and CC50 values were defined as the compound concentration that causes a 50% decrease in luminescence signal and were calculated using a sigmoidal dose-response model to generate curve fits.

Another series can be described thus: in vitro. The series is classed as cell-based. The settings on record: human. On the procedure: (§2) The prepared compounds were tested for their anti-HIV-1 activity (Table 1). A viral cytopathic effect assay in MT-4 cells with HIV-1 IIIB virus was used to determine compound potency (EC50, 50% cell viability) in protecting virus induced cell killing. Compound cytotoxicity was assessed in MT-4 cells in the absence of virus (CC50, 50% cytotoxicity). […] ETV contains bromo and amino substitutions on the DAPY core. […] Likely, with the smaller cyano arm I in 1, 3, and 5, the cores could be further elaborated to optimize the compound position in the pocket and to improve potency.
as §1

The subject of another series is HIV-1 HXB2 K103N variant. Put plainly: MT-4 antiviral cytopathic effect assay, HXB2-K103N. The series is classed as cell-based. The settings on record: preliminary biological data, in words. On the procedure:
as §2, §1

A further series concerns HIV-1 HXB2 Y181C variant. The series can be described thus: MT-4 antiviral cytopathic effect assay, HXB2-Y181C. Type of series: cell-based. The settings on record: preliminary biological data, in words. On the procedure:
as §2, §1

Series [1] in a line: Solubility assessment, shake-flask method. Type of series: physicochemical. The settings on record: preliminary data, in words. On the procedure:
Compound solubility was measured at Analiza (Cleveland, OH) by the standard shake-flask method at pH 1.2 and 7.4 and quantitated by HPLC-UV.

In the case of `Cc1cc(CO)cc(C)c1N1CC(=O)Nc2cnc(Nc3ccc(C#N)cc3)nc21` [Compound 28, 4-({8-[4-(hydroxymethyl)-2,6-dimethylphenyl]-6-oxo-5,6,7,8-tetrahydropteridin-2-yl}amino)benzonitrile], the EC50 in the series on HIV-1 (IIIB strain) is 0.0789 µM. The same compound returned a CC50 at 120 h in “in vitro” of 41.6 µM.

For the compound `Cc1cc(C=O)cc(C)c1-n1c(=O)[nH]c2cnc(Nc3ccc(C#N)cc3)nc21` [Compound 40, 4-{[9-(4-Formyl-2,6-dimethylphenyl)-8-oxo-8,9-dihydro-7H-purin-2-yl]amino}benzonitrile], the EC50 with HIV-1 (IIIB strain) turned out to be 0.209 µM. This compound gave a CC50 at 5 days in the series “in vitro” greater than 50 µM.

Regarding `Cc1cc(C=O)cc(C)c1N1CC(=O)Nc2cnc(Nc3ccc(C#N)cc3)nc21` [Compound 41, 4-{[8-(4-Formyl-2,6-dimethylphenyl)-6-oxo-5,6,7,8-tetrahydropteridin-2-yl]amino}benzonitrile], in the series on HIV-1 (IIIB strain), the EC50 came out at 0.0767 µM. The compound also came in with a CC50 at 120 h in “in vitro” of 14.2 µM.

As to `Cc1cc(C=O)cc(C)c1N1CCC(=O)Nc2cnc(Nc3ccc(C#N)cc3)nc21` [Compound 42, 4-{[9-(4-Formyl-2,6-dimethylphenyl)-6-oxo-5H,6H,7H,8H,9H-pyrimido[4,5-b][1,4]diazepin-2-yl]amino}benzonitrile], in the series on HIV-1 (IIIB strain), the EC50 amounted to 0.0943 µM. Also, the 50% cytotoxic concentration (CC50) at 120 h in the series “in vitro” was 5 µM.

For the compound `Cc1cc(Br)cc(C)c1N1CC(=O)Nc2cnc(Nc3ccc(C#N)cc3)nc21` [Compound 14, 4-{[8-(4-Bromo-2,6-dimethylphenyl)-6-oxo-5,6,7,8-tetrahydropteridin-2-yl]amino}benzonitrile], the “activity against the WT virus” value in the series on HIV-1 (IIIB strain) (preliminary biological data, in words) was “low nanomolar activity”. Further, the “potency against K103N mutated strain” value in the series on HIV-1 HXB2 K103N variant is given as “high potency”. Besides, the “potency against Y181C mutated strain” value with HIV-1 HXB2 Y181C variant is given as “high potency”. The aqueous solubility entry in series [1] is listed as “significantly improved”.

With `Cc1cc(CO)cc(C)c1N1CCC(=O)Nc2cnc(Nc3ccc(C#N)cc3)nc21` [Compound 39, 4-({9-[4-(hydroxymethyl)-2,6-dimethylphenyl]-6-oxo-5H,6H,7H,8H,9H-pyrimido[4,5-b][1,4]diazepin-2-yl}amino)benzonitrile], the EC50 in the series on HIV-1 (IIIB strain) is 0.198 µM. For the same compound, in “in vitro”, the CC50 at 120 h was determined as 15.9 µM.

In the case of `Cc1cc(CO)cc(C)c1-n1c(=O)[nH]c2cnc(Nc3ccc(C#N)cc3)nc21` [Compound 32, 4-({9-[4-(Hydroxymethyl)-2,6-dimethylphenyl]-8-oxo-8,9-dihydro-7H-purin-2-yl}amino)benzonitrile], the EC50 in the series with HIV-1 (IIIB strain) is 0.174 µM. Moreover, the CC50 at 120 h in “in vitro” is 39.7 µM.
